Columns and labels:
Test in all cases: relative viability (nuclei count vs DMSO), 5 days (fraction); higher = more cells survive
[1] = compound: Cc1ccccc1C(C(=O)NC1CCCCC1)N(C(=O)Cn1ccnc1C)c1cccc(F)c1 [IDH-C35] + Cc1cc(Nc2cc(N3CCN(C)CC3)nc(Sc3ccc(NC(=O)C4CC4)cc3)n2)n[nH]1 [Tozasertib] (partner 0.1 µM)
Outline: (§1)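 Relative viability divides the nuclei count in treated wells by that in vehicle wells. Lung cancer cell lines were seeded in 1536-well plates, dosed by pin tool the next day, and fixed and stained after 5 days in one step with final 0.05% Triton X-100, 1% formaldehyde and 1 ug/ml Hoechst. Dosing was a single drug or a fixed anchor-drug dose plus five library-drug doses (not always all listed) in √10 steps, and values are medians of duplicate plates imaged at 4×.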

[2] = compound: CC1=C(C(=NN1)C)CC2=C(C3=C(S2)N(C(=O)N(C3=O)C)CC(C)C)C(=O)N4C[C@@H](CO4)O + Nc1ncn([C@H]2C[C@H](O)[C@@H](CO)O2)c(=O)n1 [Decitabine] (partner 2 µM)
Outline: as §1

[3] = compound: Cc1ccccc1C(C(=O)NC1CCCCC1)N(C(=O)Cn1ccnc1C)c1cccc(F)c1 [IDH-C35] + O=C(CCCCCCC(=O)Nc1ccccc1)NO [Vorinostat] (partner 1 µM)
Outline: as §1

[4] = compound: CC1=C(C(=NN1)C)CC2=C(C3=C(S2)N(C(=O)N(C3=O)C)CC(C)C)C(=O)N4C[C@@H](CO4)O + C[C@@H](Oc1cc(-c2cnn(C3CCNCC3)c2)cnc1N)c1c(Cl)ccc(F)c1Cl [Crizotinib] (partner 1 µM)
Outline: as §1

| Cell Line | relative viability ([1]; first compound 0.08 µM) | relative viability ([1]; first compound 0.253 µM) | relative viability ([1]; first compound 0.8 µM) | relative viability ([1]; first compound 2.53 µM) | relative viability ([1]; first compound 8 µM) | relative viability ([2]; first compound 0.0025 µM) | relative viability ([2]; first compound 0.007906 µM) | relative viability ([2]; first compound 0.025 µM) | relative viability ([2]; first compound 0.07906 µM) | relative viability ([2]; first compound 0.25 µM) | relative viability ([3]; first compound 0.08 µM) | relative viability ([3]; first compound 0.253 µM) | relative viability ([3]; first compound 0.8 µM) | relative viability ([3]; first compound 2.53 µM) | relative viability ([3]; first compound 8 µM) | relative viability ([4]; first compound 0.0025 µM) | relative viability ([4]; first compound 0.007906 µM) | relative viability ([4]; first compound 0.025 µM) | relative viability ([4]; first compound 0.07906 µM) | relative viability ([4]; first compound 0.25 µM) |
| --- | --- | --- | --- | --- | --- | --- | --- | --- | --- | --- | --- | --- | --- | --- | --- | --- | --- | --- | --- | --- |
| NCI-H460 | 0.614 | 0.396 | 0.493 | 0.336 | 0.412 | 0.512 | 0.604 | 0.502 | 0.494 | 0.557 | 0.723 | 0.693 | 0.676 | 0.725 | 0.649 | 0.865 | 1.1 | 0.848 | 1.12 | 0.948 |
| NCI-H650 | 0.669 | 0.765 | 0.768 | – | 0.698 | 0.321 | 0.39 | 0.336 | 0.329 | 0.361 | 0.413 | 0.434 | 0.515 | – | 0.505 | 0.949 | 0.75 | 0.631 | 0.77 | 0.773 |
| NCI-H661 | 0.326 | 0.358 | 0.372 | 0.346 | 0.355 | 0.521 | 0.623 | 0.546 | 0.542 | 0.58 | 0.753 | 0.816 | 0.778 | 0.756 | 0.721 | – | 0.965 | 0.938 | 0.988 | 1.07 |
| NCI-H1734 | 0.28 | 0.27 | 0.246 | 0.247 | 0.249 | 0.561 | 0.516 | 0.533 | 0.451 | 0.503 | 0.712 | 0.846 | 0.83 | 0.826 | 0.815 | 0.773 | 0.517 | 0.641 | 0.614 | 0.562 |
| LXF-289 | 0.17 | 0.173 | 0.201 | 0.209 | 0.166 | 0.432 | 0.395 | 0.354 | 0.393 | 0.443 | 0.768 | 0.787 | 0.86 | 0.62 | 0.799 | 0.817 | 0.735 | 0.818 | 0.789 | 0.818 |
| H3255 | 0.59 | 0.6 | 0.522 | 0.511 | 0.703 | 0.567 | 0.446 | 0.568 | 0.651 | 0.641 | 0.8 | 0.925 | 0.875 | 0.73 | 0.868 | 0.924 | 0.902 | 0.817 | 0.816 | 0.926 |
| 201T | 0.927 | 0.914 | 0.893 | 0.928 | 0.828 | 0.87 | 0.866 | 0.795 | 0.865 | 0.82 | 1 | 0.942 | 0.946 | 0.641 | 0.951 | 1.06 | 0.978 | 1.03 | 1.06 | 1.05 |
| NCI-H2126 | 0.81 | 0.812 | 0.865 | 0.824 | 0.884 | 0.575 | 0.561 | 0.564 | 0.512 | 0.603 | 0.683 | 0.806 | 0.698 | 0.5 | 0.61 | 1.05 | 1.02 | 1.01 | 1 | 1.02 |
| HOP-62 | 0.394 | 0.368 | 0.334 | 0.382 | 0.331 | 0.197 | 0.218 | 0.268 | 0.165 | 0.279 | 0.532 | 0.708 | 0.669 | 0.434 | 0.628 | 0.807 | 1.11 | 1 | 0.819 | 1.12 |
| NCI-H520 | 0.327 | 0.427 | 0.54 | 0.405 | 0.409 | 0.476 | 0.448 | 0.45 | 0.423 | 0.371 | 0.68 | 0.728 | 0.899 | 0.669 | 0.699 | 0.717 | 0.671 | 0.307 | 0.291 | 0.36 |
| NCI-H1755 | 0.587 | 0.522 | 0.607 | 0.671 | 0.553 | 0.699 | 0.811 | 0.742 | 0.646 | 0.696 | 0.738 | 0.8 | 0.82 | 0.809 | 0.725 | 0.876 | 0.952 | 0.941 | 0.877 | 0.967 |
| NCI-H2023 | 0.352 | 0.343 | 0.355 | 0.297 | 0.248 | 0.23 | 0.255 | 0.211 | 0.231 | 0.244 | 0.667 | 0.799 | 0.68 | 0.634 | 0.636 | 0.76 | 0.731 | 0.705 | 0.691 | 0.659 |
| NCI-H2009 | 0.69 | 0.72 | 0.728 | 0.735 | 0.692 | 0.412 | 0.408 | 0.342 | 0.418 | 0.407 | 0.762 | 0.688 | 0.758 | 0.69 | 0.681 | 0.966 | 1.03 | 1.06 | 1.09 | 1.11 |

— the supplement of paper PMC10307832
